Assay results published in PubChem BioAssay AID2060613 (Molecular Pharmacology Branch, DTP, NCI, 2025).

System: 233499-124-R-J3-PDC complex spheroid viability
Test: Anticancer human tumor 233499-124-R-J3-PDC patient-derived colon adenocarcinoma cell line growth inhibition [CLK]
Settings: for IC50: curve of first compound; for viability, T/C: stronger effect = lower value
Procedure, shortened: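 Patient-derived tumor cells grown as complex spheroids with HUVEC endothelial cells and mesenchymal stem cells, treated with drug combinations. Concentrations descend in half-log steps from near clinical Cmax, or from 10 microM if Cmax unknown.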

[1] = second compound 0.0316 µM, first compound 0.0316 µM
[2] = second compound 0.0316 µM, first compound 0.1 µM
[3] = second compound 0.0316 µM, first compound 0.316 µM
[4] = second compound 0.0316 µM, first compound 1 µM
[5] = second compound 0.0316 µM, first compound 3.16 µM
[6] = second compound 0.0316 µM, first compound 10 µM
[7] = second compound 0.1 µM, first compound 0.0316 µM
[8] = second compound 0.1 µM, first compound 0.1 µM
[9] = second compound 0.1 µM, first compound 0.316 µM
[10] = second compound 0.1 µM, first compound 1 µM
[11] = second compound 0.1 µM, first compound 3.16 µM
[12] = second compound 0.1 µM, first compound 10 µM
[13] = second compound 0.316 µM, first compound 0.0316 µM
[14] = second compound 0.316 µM, first compound 0.1 µM
[15] = second compound 0.316 µM, first compound 0.316 µM
[16] = second compound 0.316 µM, first compound 1 µM
[17] = second compound 0.316 µM, first compound 3.16 µM
[18] = second compound 0.316 µM, first compound 10 µM
[19] = second compound 1 µM, first compound 0.0316 µM
[20] = second compound 1 µM, first compound 0.1 µM
[21] = second compound 1 µM, first compound 0.316 µM
[22] = second compound 1 µM, first compound 1 µM
[23] = second compound 1 µM, first compound 3.16 µM
[24] = second compound 1 µM, first compound 10 µM
[25] = second compound 3.16 µM, first compound 0.0316 µM
[26] = second compound 3.16 µM, first compound 0.1 µM
[27] = second compound 3.16 µM, first compound 0.316 µM
[28] = second compound 3.16 µM, first compound 1 µM
[29] = second compound 3.16 µM, first compound 3.16 µM
[30] = second compound 3.16 µM, first compound 10 µM
[31] = second compound 10 µM, first compound 0.0316 µM
[32] = second compound 10 µM, first compound 0.1 µM
[33] = second compound 10 µM, first compound 0.316 µM
[34] = second compound 10 µM, first compound 1 µM
[35] = second compound 10 µM, first compound 3.16 µM
[36] = second compound 10 µM, first compound 10 µM
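Further: spheroids exposed to the drug combinations for seven days.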
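Wherever viability, T/C is given: percent viability relative to DMSO vehicle control wells taken as 100%.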

Work on `O=c1[nH]cc(F)c(=O)[nH]1` + CNC(=O)c1ccc(Nc2nc(OC3CCCC3)c3c(-c4ccc5nc(C)oc5c4)c[nH]c3n2)c(OC)c1 yielded an IC50 (second compound 0.0316 µM) of 316 nM, an IC50 (second compound 0.1 µM) of 199 nM and an IC50 (second compound 0.316 µM) of 166 nM. It also gave an IC50 (second compound 1 µM) of 166 nM, an IC50 (second compound 3.16 µM) of 150 nM and an IC50 (second compound 10 µM) of 195 nM. The viability, T/C [1] was 91.5%, the viability, T/C [2] was 95.7% and the viability, T/C [3] was 49.8%. The viability, T/C [4] was 28.5%, the viability, T/C [5] was 20.1% and the viability, T/C [6] was 19.1%. It also gave a viability, T/C [7] of 73%, a viability, T/C [8] of 72.4% and a viability, T/C [9] of 35.2%. It also gave a viability, T/C [10] of 21.4%, a viability, T/C [11] of 15.1% and a viability, T/C [12] of 20.4%. It also gave a viability, T/C [13] of 81%, a viability, T/C [14] of 60.5% and a viability, T/C [15] of 36.8%. For the same molecule, the viability, T/C [16] was 20.7%, the viability, T/C [17] was 14.9% and the viability, T/C [18] was 16.5%. It also gave a viability, T/C [19] of 70.6%, a viability, T/C [20] of 68.7% and a viability, T/C [21] of 26.2%. For the same molecule, the viability, T/C [22] was 11.4%, the viability, T/C [23] was 7.78% and the viability, T/C [24] was 9.54%. It also gave a viability, T/C [25] of 70.8%, a viability, T/C [26] of 63.1% and a viability, T/C [27] of 26.9%. For the same molecule, the viability, T/C [28] was 15.5%, the viability, T/C [29] was 7.07% and the viability, T/C [30] was 6.87%. For the same molecule, the viability, T/C [31] was 69.6%, the viability, T/C [32] was 75.3% and the viability, T/C [33] was 33.6%. The viability, T/C [34] was 16%, the viability, T/C [35] was 7.38% and the viability, T/C [36] was 8.24%.
With `CC1(C)CCC(CN2CCN(c3ccc(C(=O)NS(=O)(=O)c4ccc(NCC5CCOCC5)c([N+](=O)[O-])c4)c(Oc4cnc5[nH]ccc5c4)c3)CC2)=C(c2ccc(Cl)cc2)C1` + CN1CCN(c2cc(C(=O)Nc3cc4cc(-c5cnn(C)c5)ccc4cn3)ccn2)CC1 the IC50 (second compound 0.0316 µM) was 6390 nM, the IC50 (second compound 0.1 µM) was 6370 nM and the IC50 (second compound 0.316 µM) was 5740 nM. For the same molecule, the IC50 (second compound 1 µM) was less than 31.6 nM, the IC50 (second compound 3.16 µM) was less than 31.6 nM and the IC50 (second compound 10 µM) was less than 31.6 nM. For the same molecule, the viability, T/C [1] was 93.1%, the viability, T/C [2] was 104% and the viability, T/C [3] was 102%. The viability, T/C [4] was 112%, the viability, T/C [5] was 113% and the viability, T/C [6] was 15.2%. It also gave a viability, T/C [7] of 96.4%, a viability, T/C [8] of 109% and a viability, T/C [9] of 100%. For the same molecule, the viability, T/C [10] was 109%, the viability, T/C [11] was 112% and the viability, T/C [12] was 14.5%. The viability, T/C [13] was 86.1%, the viability, T/C [14] was 97% and the viability, T/C [15] was 89%. For the same molecule, the viability, T/C [16] was 98.6%, the viability, T/C [17] was 93.8% and the viability, T/C [18] was 9.92%. It also gave a viability, T/C [19] of 0.68%, a viability, T/C [20] of 5.6% and a viability, T/C [21] of 5.7%. The viability, T/C [22] was 0.77%, the viability, T/C [23] was 0.88% and the viability, T/C [24] was 1.46%. It also gave a viability, T/C [25] of 0.9%, a viability, T/C [26] of 0.86% and a viability, T/C [27] of 1.07%. The viability, T/C [28] was 0.81%, the viability, T/C [29] was 1.05% and the viability, T/C [30] was 0.73%. It also gave a viability, T/C [31] of 0.67%, a viability, T/C [32] of 0.49% and a viability, T/C [33] of 0.43%. It also gave a viability, T/C [34] of 0.49%, a viability, T/C [35] of 0.56% and a viability, T/C [36] of 0.29%.
`COc1ccc([C@@H](O)c2cc(-c3ncnc4cc(N5CCOCC5)ccc34)c(F)cc2Cl)nn1` + CNC(=O)c1ccc(Nc2nc(OC3CCCC3)c3c(-c4ccc5nc(C)oc5c4)c[nH]c3n2)c(OC)c1 showed an IC50 (second compound 0.0316 µM) greater than 10000 nM, an IC50 (second compound 0.1 µM) greater than 10000 nM and an IC50 (second compound 0.316 µM) greater than 10000 nM. The IC50 (second compound 1 µM) was 1510 nM, the IC50 (second compound 3.16 µM) was 2680 nM and the IC50 (second compound 10 µM) was 118 nM. For the same molecule, the viability, T/C [1] was 94.7%, the viability, T/C [2] was 89.6% and the viability, T/C [3] was 86.6%. The viability, T/C [4] was 97%, the viability, T/C [5] was 81.1% and the viability, T/C [6] was 52.8%. For the same molecule, the viability, T/C [7] was 54.9%, the viability, T/C [8] was 65.2% and the viability, T/C [9] was 67.8%. The viability, T/C [10] was 55.8%, the viability, T/C [11] was 65.5% and the viability, T/C [12] was 63.8%. The viability, T/C [13] was 68.4%, the viability, T/C [14] was 52.1% and the viability, T/C [15] was 57%. It also gave a viability, T/C [16] of 50.2%, a viability, T/C [17] of 69.4% and a viability, T/C [18] of 41.3%. For the same molecule, the viability, T/C [19] was 84.6%, the viability, T/C [20] was 64% and the viability, T/C [21] was 64.6%. It also gave a viability, T/C [22] of 51.1%, a viability, T/C [23] of 48.4% and a viability, T/C [24] of 37.6%. The viability, T/C [25] was 72.8%, the viability, T/C [26] was 68.9% and the viability, T/C [27] was 37.1%. For the same molecule, the viability, T/C [28] was 55.2%, the viability, T/C [29] was 65.3% and the viability, T/C [30] was 39%. For the same molecule, the viability, T/C [31] was 55.3%, the viability, T/C [32] was 49.2% and the viability, T/C [33] was 43.7%. The viability, T/C [34] was 46.4%, the viability, T/C [35] was 47.7% and the viability, T/C [36] was 38.9%.
`CC(=O)O[C@H]1C(=O)[C@@]2(C)[C@H]([C@H](OC(=O)c3ccccc3)[C@]3(O)C[C@H](OC(=O)[C@H](O)[C@@H](NC(=O)c4ccccc4)c4ccccc4)C(C)=C1C3(C)C)[C@]1(OC(C)=O)CO[C@@H]1C[C@@H]2O` + CN1CCN(c2cc(C(=O)Nc3cc4cc(-c5cnn(C)c5)ccc4cn3)ccn2)CC1 showed an IC50 (second compound 0.0316 µM) of 69.9 nM, an IC50 (second compound 0.1 µM) of 57.7 nM and an IC50 (second compound 0.316 µM) of 39.4 nM. For the same molecule, the IC50 (second compound 1 µM) was less than 31.6 nM, the IC50 (second compound 3.16 µM) was less than 31.6 nM and the IC50 (second compound 10 µM) was less than 31.6 nM. For the same molecule, the viability, T/C [1] was 79.9%, the viability, T/C [2] was 36.4% and the viability, T/C [3] was 15.7%. For the same molecule, the viability, T/C [4] was 14.2%, the viability, T/C [5] was 14.4% and the viability, T/C [6] was 21.8%. The viability, T/C [7] was 77.1%, the viability, T/C [8] was 25.5% and the viability, T/C [9] was 11.9%. It also gave a viability, T/C [10] of 10.2%, a viability, T/C [11] of 12% and a viability, T/C [12] of 15.1%. It also gave a viability, T/C [13] of 57.5%, a viability, T/C [14] of 18.2% and a viability, T/C [15] of 15.6%. It also gave a viability, T/C [16] of 11.5%, a viability, T/C [17] of 13.8% and a viability, T/C [18] of 11.9%. It also gave a viability, T/C [19] of 0.76%, a viability, T/C [20] of 1.44% and a viability, T/C [21] of 1.17%. It also gave a viability, T/C [22] of 1.02%, a viability, T/C [23] of 0.56% and a viability, T/C [24] of 0.53%. The viability, T/C [25] was 0.61%, the viability, T/C [26] was 0.63% and the viability, T/C [27] was 0.56%. It also gave a viability, T/C [28] of 0.52%, a viability, T/C [29] of 0.59% and a viability, T/C [30] of 0.74%. The viability, T/C [31] was 0.46%, the viability, T/C [32] was 0.45% and the viability, T/C [33] was 0.39%. For the same molecule, the viability, T/C [34] was 0.43%, the viability, T/C [35] was 0.43% and the viability, T/C [36] was 0.39%.
